Values quoted from earlier work, collected in US20250075209A1, “RNAS FOR COMPLEMENT INHIBITION” (Apellis Pharmaceuticals, Inc., priority 2021, published 2025).
[ ]: non-standard residue; d: D form. Bpa = N[C@@H](Cc1ccc(C(=O)c2ccccc2)cc1)C(=O)O; 1Nal = N[C@@H](Cc1cccc2ccccc12)C(=O)O; 2Nal = N[C@@H](Cc1ccc2ccccc2c1)C(=O)O; Igl = N[C@H](C(=O)O)C1Cc2ccccc2C1

System: complement activation
Details: relative to compstatin amidated at the C-terminus; based on published data (WO2004/026328, WO2007044668, Mallik 2005, Katragadda 2006); cited from earlier work

Substance | Activity over compstatin
Ac-ICV(2-Igl)QDWGAHRCT-COOH (Ac-ICV[Igl]QDWGAHRCT-OH; not fully specified (bridges); printed as Ac-ICV(2-Igl)QDWGAHRCT-COOH; cysteine pairing not given here) [Ac-V42Igl/H9A-OH] | 37xmore
Ac-ICV(Bpa)QDWGAHRCT-CONH2 (Ac-ICV[Bpa]QDWGAHRCT-NH2; not fully specified (bridges); printed as Ac-ICV(Bpa)QDWGAHRCT-CONH2; cysteine pairing not given here) [Ac-V4(Bpa)/H9A] | 86xmore
Ac-ICV(Bpa)QDWGAHRCT-COOH (Ac-ICV[Bpa]QDWGAHRCT-OH; not fully specified (bridges); printed as Ac-ICV(Bpa)QDWGAHRCT-COOH; cysteine pairing not given here) [Ac-V4(Bpa)/H9A-OH] | 49xmore
Ac-ICV(2-Nal)CQDWGAHRCT-ONH2 (Ac-ICV[2Nal]QDWGAHRCT-NH2; ends and bridges not checked) [Ac-V4(2-Nal)/H9A] | 99xmore
Ac-ICV(1-Nal)QDWGAHRCT-COOH (Ac-ICV[1Nal]QDWGAHRCT-OH; not fully specified (bridges); printed as Ac-ICV(1-Nal)QDWGAHRCT-COOH; cysteine pairing not given here) [Ac V4(1-Nal)/H9A-OH] | 30xmore
Ac-ICVYQDWGAHRCT-CONH2 [Ac-V4Y/H9A] | 14xmore
H-GICV(6fW)QD(6fW)GAHRCTN-COOH (GICVXQDXGAHRCTN; not fully specified; 6-fluoro-Trp residues; C-terminal acid; SITE 1 N-term H - hydrogenated Glycine; SITE 5 6-fluoro-tryptophan; SITE 8 6-fluoro-tryptophan; SITE 15 C-term COOH - Asparagine carboxide) [+G/V4(6fW)/W7(6fW)H9A + N-OH] | 126xmore
